# No end group written: not given here.
# Experiments:
# [1] = ICV injection in sated rats at onset of dark phase: food intake and behaviour (study 3); assay type: in vivo, rat; details: study 3a, 3 nmol ICV, early dark phase, vs saline
# Protocol: Food intake was measured 1 h postinjection (study 3a), and behaviour was assessed (study 3b).
# [2] = iPVN injection, food intake in 24-h fasted rats (studies 1b, 2b); assay type: in vivo, rat; details: for refeeding (food intake) after iPVN injection: study 1b, OXM, GLP-1 (3 nmol [sic]), exendin-4 0.03 nmol, glicentin, glucagon 1 nmol, SP-1 3 nmol, fasted rats
# Protocol: (§1) Animals had permanent stainless steel guide cannulas (Plastics One, Roanoke, Va.) stereotactically implanted ICV or iPVN.
# Therefore, exendin-4 was injected iPVN at a dose of 0.03 nmol.
# [3] = ICV injection, food intake in 24-h fasted rats (studies 1a, 2a); assay type: in vivo, rat; details: study 1a, 3 nmol ICV; for refeeding (food intake) after ICV injection: 24-h fasted rats, vs saline
# Description: as §1
# [4] = system: fos-like immunoreactivity; assay: fos-like immunoreactivity (FLI) in hypothalamus and brainstem after IP injection; assay type: in vivo, rat; details: IP OXM 50 nmol/kg or CCK 15 nmol/kg; 90 minutes after injection
# Description: The brains were removed and post-fixed overnight in PBF and then transferred to PB-sucrose (20% w/v) overnight. 40 μm coronal sections of brain and brainstem were cut on a freezing microtome and stained for fos-like immunoreactivity (FLI) by the avitin-biotin-peroxidase method. The sections were then mounted on poly-L-lysine-coated slides, dehydrated in increasing concentrations of ethanol (50-100%), delipidated in xylene and coverslipped using DPX mountant. Slides were examined for FLI-positive nuclei using a light microscope (Nikon Eclipse E-800) and images captured using a microimager (Xillix MicroImager). The numbers of FLI-positive nuclei in the hypothalamus and brainstem were counted by an independent member of the research team who was blinded to the experimental groups. The average number of FLI-positive nuclei per section was calculated and expressed as an integer for each animal.
# GLP-1 receptor [5] = target: T1, GLP-1 receptor (Rattus norvegicus, UniProt P32301); assay: ICV coadministration of exendin-(9-39) with GLP-1 or OXM, food intake (study 4a); assay type: in vivo; details: 1 h food intake
# T1 construct: from tissue; host or cells: rat hypothalamus (membrane preparation)
# T1 sequence (P32301 22-463): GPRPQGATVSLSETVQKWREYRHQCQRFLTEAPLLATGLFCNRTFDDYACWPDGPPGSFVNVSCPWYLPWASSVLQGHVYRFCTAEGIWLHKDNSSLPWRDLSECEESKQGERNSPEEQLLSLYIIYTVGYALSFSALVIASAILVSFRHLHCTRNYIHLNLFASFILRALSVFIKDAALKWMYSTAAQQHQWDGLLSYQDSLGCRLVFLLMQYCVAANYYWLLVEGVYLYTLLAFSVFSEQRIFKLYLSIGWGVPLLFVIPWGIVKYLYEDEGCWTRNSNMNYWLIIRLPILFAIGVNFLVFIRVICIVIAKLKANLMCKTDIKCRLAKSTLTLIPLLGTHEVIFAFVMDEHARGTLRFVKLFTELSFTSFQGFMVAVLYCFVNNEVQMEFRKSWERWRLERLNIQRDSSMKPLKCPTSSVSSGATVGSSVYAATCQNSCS
# Protocol: (§2) Animals had permanent stainless steel guide cannulas (Plastics One, Roanoke, Va.) stereotactically implanted ICV or iPVN. All studies were carried out in the early light phase, between 0900-1100 h, after a 24-h fast, and food intake was measured 1, 2, 4, 8, and 24 h postinjection.
# [6] = target: T2, arcuate nucleus GLP-1 receptors (Rattus norvegicus, UniProt P32301); assay: iARC exendin 9-39 prior to IP OXM or GLP-1, 1 hour food intake; assay type: in vivo
# T2 construct: 24-hour fasted rats received an iARC injection of saline or exendin9-39 (5 nmoles); from tissue; host or cells: living rat, hypothalamic arcuate nucleus
# T2 sequence (P32301 22-463): T1 sequence (P32301 22-463)
# Description: Rats cannulated into the arcuate nucleus were randomised into 6 groups (n=10-12 per group). […] The injection details are described in Table 1 below.
# GLP-1 receptor [7] = target: T1, GLP-1 receptor; assay: iPVN coinjection of exendin-(9-39) with GLP-1 or OXM, food intake (study 4b); assay type: in vivo
# Protocol: as §2
compound,measurement,setting,value
"CC[C@H](C)[C@H](NC(=O)[C@H](Cc1ccccc1)NC(=O)[C@H](CCC(=O)O)NC(=O)[C@H](CCCCN)NC(=O)[C@H](C)NC(=O)[C@H](C)NC(=O)[C@H](CCC(N)=O)NC(=O)CNC(=O)[C@H](CCC(=O)O)NC(=O)[C@H](CC(C)C)NC(=O)[C@H](Cc1ccc(O)cc1)NC(=O)[C@H](CO)NC(=O)[C@H](CO)NC(=O)[C@@H](NC(=O)[C@H](CC(=O)O)NC(=O)[C@H](CO)NC(=O)[C@@H](NC(=O)[C@H](Cc1ccccc1)NC(=O)[C@@H](NC(=O)CNC(=O)[C@H](CCC(=O)O)NC(=O)[C@H](C)NC(=O)[C@@H](N)Cc1c[nH]cn1)[C@@H](C)O)[C@@H](C)O)C(C)C)C(=O)N[C@@H](C)C(=O)N[C@@H](Cc1c[nH]c2ccccc12)C(=O)N[C@@H](CC(C)C)C(=O)N[C@H](C(=O)N[C@@H](CCCCN)C(=O)NCC(=O)N[C@@H](CCCNC(=N)N)C(N)=O)C(C)C [GLP-1, glucagon-like peptide-1]",food intake 1 h postinjection,[1],significantly reduced food intake
same,refeeding (food intake) after iPVN injection,[2],inhibited refeeding
same,food intake after iPVN injection,"[2]; study 2b, 1 nmol iPVN, until 8 h postinjection",significantly reduced
same,refeeding (food intake) after ICV injection,[3],significantly reduced refeeding
same,duration of inhibition of food intake postinjection,[3]; fasted rats,4 h
"CCK-8 (DYMGWMDF; ends and bridges not checked; UniProt P06307 96-103, looked up) [positive control for gastric emptying and brainstem FLI]","FLI / c-fos expression in the brainstem (NTS, area postrema)",[4],dense staining of FLI
exendin-4,refeeding (food intake) after iPVN injection,[2],inhibited refeeding
exendin-(9-39),effect of coadministered exendin-(9-39) on anorectic effect of GLP-1,GLP-1 receptor [5]; exendin-(9-39) 30 nmol with GLP-1 3 nmol (10:1),blocked the anorectic effects of GLP-1
same,effect of coadministered exendin-(9-39) on anorectic effect of OXM,GLP-1 receptor [5]; exendin-(9-39) 30 nmol with OXM 3 nmol,attenuation of the anorectic effect of OXM
same,Food intake,"[6]; 1 hour, iARC injection / IP injection 15 minutes later, exendin 9-39 5 nmoles, OXM or GLP-1 30 nmol/kg, Saline/saline 9.2",9.0 g
same,effect of prior iARC exendin 9-39 on inhibition of food intake by IP GLP-1,[6]; GLP-1 30 nmol/kg IP,not affected
same,effect of prior iARC exendin 9-39 on anorexia caused by IP OXM,"[6]; exendin 9-39 (300 nmol/kg as printed) into the ARC, OXM 30 nmol/kg IP",blocked
same,effect of coinjected exendin-(9-39) on anorectic effect of GLP-1,GLP-1 receptor [7]; exendin-(9-39) 10 nmol with GLP-1 1 nmol,blocked
same,effect of coinjected exendin-(9-39) on anorectic effect of OXM,GLP-1 receptor [7]; exendin-(9-39) 10 nmol with OXM 1 nmol,blocked
glucagon,refeeding (food intake) after iPVN injection,[2],failed to affect food intake at any time point
same,refeeding (food intake) after ICV injection,[3],failed to affect food intake at any time point

# Reference: patent publication US7666835B2 (Imperial Innovations Limited, priority 2001, dated 2010)
